Counter-ions that a name gives are not always drawn.
Test system: Male rats (HSD/Cpb:WU)
Test: telemetric body temperature measurements in freely moving rats (rise in core body temperature after manipulation for injection)
Format: in vivo
Settings: subcutaneous, 22 mg/kg
Text: Male rats (HSD/Cpb:WU, Harlan Sprague Dawley, Zeist, The Netherlands), weighing 350-480 g, were used. The rats were implanted with a Physio Tel TA11CTA-F40 Implant (Data Sciences International) under pentobarbital anesthesia. After surgery the rats were housed individually in a type II clear MACROLON™ cage (23×17××14 cm). The cages were placed on receivers (RLA 1020). After a recovery and adaptation period of at least one week the rats were used for the experiments. On the experimental day, body temperature, heart rate and locomotor activity was monitored for 30 minutes prior to injection of vehicle or test compound. This period provides a baseline core body temperature relative to which the changes of body temperature after the manipulation of the rats for injection are expressed. After 30 minutes the rats were injected subcutaneously with vehicle or test compound and the same parameters were measured for at least 60 minutes. Immediately after injection the core body temperature rises. Compounds inhibiting this rise in temperature reveal an inhibiting effect on acute body heat production. Results obtained with other parameters, such as the effect on heart rate and on locomotor activity are not presented here. 6 animals were used for measurement of each dose of compound
Data were analyzed using Dataquest IV Data Acquisition System Ver 2.2.
Compounds were dissolved in NaCl 0.9% (m/v) in water as vehicle for subcutaneous injection.

CNCCC(Oc1ccc(C(F)(F)F)cc1)c1ccccc1 (stereo not drawn) [Fluoxetine, Fluoxetine HCl, reference compound]
absolute mean increments in body temperature relative to baseline during 30 minutes prior to manipulation (5 minutes after injection): 0.28 °C | absolute mean increments in body temperature relative to baseline during 30 minutes prior to manipulation (10 minutes after injection): 0.59 °C | absolute mean increments in body temperature relative to baseline during 30 minutes prior to manipulation (15 minutes after injection): 0.71 °C | absolute mean increments in body temperature relative to baseline during 30 minutes prior to manipulation (20 minutes after injection): 0.72 °C | absolute mean increments in body temperature relative to baseline during 30 minutes prior to manipulation (25 minutes after injection): 0.66 °C | absolute mean increments in body temperature relative to baseline during 30 minutes prior to manipulation (30 minutes after injection): 0.56 °C | absolute mean increments in body temperature relative to baseline during 30 minutes prior to manipulation (35 minutes after injection): 0.55 °C | absolute mean increments in body temperature relative to baseline during 30 minutes prior to manipulation (40 minutes after injection): 0.45 °C | absolute mean increments in body temperature relative to baseline during 30 minutes prior to manipulation (45 minutes after injection): 0.38 °C | absolute mean increments in body temperature relative to baseline during 30 minutes prior to manipulation (50 minutes after injection): 0.27 °C | absolute mean increments in body temperature relative to baseline during 30 minutes prior to manipulation (55 minutes after injection): 0.29 °C | absolute mean increments in body temperature relative to baseline during 30 minutes prior to manipulation (60 minutes after injection): 0.85 °C

— patent US7396854B2, “Use of serotonergic compound for a method of treatment of hot flushes in post-menopausal women” (N.V. Organon, priority 2001, dated 2008)
